Measurements as given in patent US12398155B2, “Thienopyridinone compounds” (Janssen Pharmaceutica NV, priority 2019, dated 2025).
Where a name gives a salt, the structure may show the parent alone.

Assays:
[1] = target: T1, NIH/3T3 cells overexpressing FGFR3 V555M-TACC3 fusion protein (Homo sapiens, UniProt P22607, V555M, cells depend on it); experiment: NIH/3T3 FGFR3 V555M-TACC3 cell proliferation assay; format: cell-based; details: 72-hr incubation, CellTiter Glo; read-out: NIH/3T3 FGFR3 V555M-TACC3 CTG
T1 construct: NIH/3T3 FGFR3 V555M-TACC3 CTG; other: 72-hr incubation, CellTiter Glo; fused on or other part: C-terminal part of TACC3 (coiled-coil) fused behind the FGFR3 kinase domain; Q9Y6A5 (Transforming acidic coiled-coil-containing protein 3)
Method: NIH/3T3 FGFR3 V555M-TACC3 Cell Proliferation Assay
(§1) In day 1, 90 μL of cell suspension (NIH/3T3 cells overexpressing FGFR3 V555M-TACC3 fusion protein) (total 30,000 cells per well in growth medium (DMEM containing 1% Glutamax, 10% FBS and 1% Pen/Strep)) was seeded in a 96-well plate and then incubated overnight at 37° C. and 5% CO2. In day 2, 10 μL of growth medium containing 10-fold stock solution of testing compound was added into cell cultures (9 dose points with 4× serial dilution, starting with 10 μM, 0.1% DMSO final). After 72-hr incubation at 37° C. and 5% CO2, in day 5 a volume of 50 μL CellTiter Glo (CTG) reagent was added into cell-containing 96-well plate and the plate was incubated at room temperature for 10 minutes before RLUs (relative light unit) were measured on a microplate reader with luminescence detection module. The RLU value was normalized to survival % and concentration-response curve was plotted using Prism to calculate IC50 (M), pIC50 (−log IC50) and HillSlope value.

[2] = target: T2, human FGFR3 wild type enzyme (cytoplasmic domain) (Homo sapiens, UniProt P22607); experiment: FGFR3 wild type mobility shift assay (enzymatic assay); format: biochemical; details: 75 μM ATP, 50 minutes at 30° C.; read-out: FGFR3 wild type Caliper
T2 construct: human FGFR3 wild type enzyme (cytoplasmic domain, from Cama Biosciences); purchased Cama Biosciences (so in the source)
Method: FGFR3 Wild Type Mobility Shift Assay (Enzymatic Assay)
(§2) In a final reaction volume of 25 μL, 0.04 ng/μL human FGFR3 wild type enzyme (cytoplasmic domain, from Cama Biosciences) was incubated with 75 μM ATP, 1 μM FL-peptide 30 substrate and 250 nL of testing compound (1% DMSO final) in assay buffer (100 mM HEPES pH 7.4, 10 mM MgCl2, 0.003% Brij35, 1 mM DTT). After incubation for 50 minutes at 30° C. the reaction was stopped with 10 μL of 0.5M EDTA pH 8.0, and then 25 μL of reaction mixture was transferred to reading plate and measured on Caliper EZ reader II. The substrate-product conversion rate was used as raw data for normalization and concentration-response curve (10 dose points with 4× serial dilution, starting with 10 μM) was plotted using Prism to calculate IC50 (M), pIC50 (−log IC50) and HillSlope value.

[3] = system: NIH/3T3 cells transfected with control vector; experiment: NIH/3T3 mock cell proliferation assay (counter assay, general toxicity); format: cell-based; details: Mus musculus, NIH3T3; 72-hr incubation, CellTiter Glo; read-out: NIH/3T3 MOCK CTG
Method: NIH/3T3 Mock Cell Proliferation Assay
as §1, with “cells transfected with the same control vector as in the above two proliferation assays)” for “cells overexpressing FGFR3 V555M-TACC3 fusion protein)”, “with 3×” for “with 4×”, “with 30” for “with 10”, “μM, 0.3%” for “μM, 0.1%”

[4] = target: T3, NIH/3T3 cells overexpressing FGFR3 WT-TACC3 fusion protein (Homo sapiens, UniProt P22607); experiment: NIH/3T3 FGFR3 WT-TACC3 cell proliferation assay; format: cell-based; details: 72-hr incubation, CellTiter Glo; read-out: NIH/3T3 FGFR3 WT-TACC3 CTG
T3 construct: NIH/3T3 FGFR3 WT-TACC3 CTG; other: 72-hr incubation, CellTiter Glo; fused on or other part: C-terminal part of TACC3 (coiled-coil) fused behind the FGFR3 kinase domain; Q9Y6A5 (Transforming acidic coiled-coil-containing protein 3)
Method: NIH/3T3 FGFR3 WT-TACC3 Cell Proliferation Assay
as §1, with “WT-TACC3” for “V555M-TACC3”

[5] = target: T4, human FGFR3 V555M enzyme (cytoplasmic domain carrying V555M mutation) (Homo sapiens, UniProt P22607, V555M); experiment: FGFR3 V555M mobility shift assay (enzymatic assay); format: biochemical; details: 30 μM ATP, 45 minutes at 30° C.; read-out: FGFR3 V555M Caliper
T4 construct: cytoplasmic domain carrying V555M mutation, from Cama Biosciences; purchased Cama Biosciences (so in the source)
Method: FGFR3 V555M Mobility Shift Assay (Enzymatic Assay)
as §2, with “FGFR3 V555M” for “FGFR3 wild type”, “(cytoplasmic domain carrying V555M mutation,” for “(cytoplasmic domain,”, “with 30” for “with 75”, “for 45” for “for 50”

T2 sequence (P22607 397-806 limits assumed): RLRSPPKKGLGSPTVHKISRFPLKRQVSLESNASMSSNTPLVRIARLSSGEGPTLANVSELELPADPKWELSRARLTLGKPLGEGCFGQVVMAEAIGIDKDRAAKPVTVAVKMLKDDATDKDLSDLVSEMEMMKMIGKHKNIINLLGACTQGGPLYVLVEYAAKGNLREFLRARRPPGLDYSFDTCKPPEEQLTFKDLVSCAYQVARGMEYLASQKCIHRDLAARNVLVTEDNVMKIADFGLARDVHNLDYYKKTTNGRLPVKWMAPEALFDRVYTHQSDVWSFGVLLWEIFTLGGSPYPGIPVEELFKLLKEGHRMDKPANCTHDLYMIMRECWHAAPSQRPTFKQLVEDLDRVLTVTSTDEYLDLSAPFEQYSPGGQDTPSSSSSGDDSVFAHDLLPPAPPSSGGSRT
T1 sequence (P22607 whole entry V555M, the tested form may be a part): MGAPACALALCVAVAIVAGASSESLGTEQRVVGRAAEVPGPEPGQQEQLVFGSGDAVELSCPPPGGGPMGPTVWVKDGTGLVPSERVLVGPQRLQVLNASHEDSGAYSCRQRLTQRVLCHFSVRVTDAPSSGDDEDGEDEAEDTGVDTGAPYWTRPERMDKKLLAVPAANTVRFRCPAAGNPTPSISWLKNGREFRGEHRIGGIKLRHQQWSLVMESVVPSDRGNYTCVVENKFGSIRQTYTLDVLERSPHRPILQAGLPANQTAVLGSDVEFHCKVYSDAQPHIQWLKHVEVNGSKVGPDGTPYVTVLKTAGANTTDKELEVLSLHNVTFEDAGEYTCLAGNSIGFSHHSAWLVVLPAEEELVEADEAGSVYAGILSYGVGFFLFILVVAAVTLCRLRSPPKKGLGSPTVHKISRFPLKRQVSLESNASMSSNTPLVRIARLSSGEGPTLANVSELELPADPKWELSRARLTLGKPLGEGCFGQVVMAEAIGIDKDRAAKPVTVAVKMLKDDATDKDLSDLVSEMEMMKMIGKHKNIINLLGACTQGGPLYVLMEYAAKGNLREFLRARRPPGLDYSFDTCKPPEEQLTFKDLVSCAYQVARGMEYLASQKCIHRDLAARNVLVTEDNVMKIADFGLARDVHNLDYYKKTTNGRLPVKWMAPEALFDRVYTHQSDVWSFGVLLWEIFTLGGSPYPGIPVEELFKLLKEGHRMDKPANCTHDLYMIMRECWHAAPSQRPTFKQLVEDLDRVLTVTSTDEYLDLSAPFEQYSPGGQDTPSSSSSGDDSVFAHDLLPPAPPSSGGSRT
T3 sequence (P22607 whole entry, change not shown, the tested form may be a part): as the sequence (P22607 whole entry V555M, the tested form may be a part) above, with M555V counted along it
T4 sequence (P22607 397-806 V555M limits assumed): as the sequence (P22607 397-806 limits assumed) above, with V159M counted along it

Compound | GI50 [1] | IC50 [2] | IC50 [3] | GI50 [4] | IC50 [5]
COCC(Nc1c(-c2nc3cnc(N4C[C@@H](C)O[C@@H](C)C4)cc3[nH]2)c(=O)[nH]c2ccsc12)c1ncccn1 (single isomer, unassigned) [Compound 7, (S*)-6-(6-(cis-2,6-dimethylmorpholino)-1H-imidazo[4,5-c]pyridin-2-yl)-7-((2-methoxy-1-(pyrimidin-2-yl)ethyl)amino)thieno[3,2-b]pyridin-5(4H)-one] | 284 nM | 35.5 nM | 3050 nM | 486 nM | 2.34 nM
COCC(Nc1c(-c2nc3cnc(N4C[C@@H](C)O[C@@H](C)C4)cc3[nH]2)c(=O)[nH]c2ccsc12)c1ncccn1 (single isomer, unassigned) [Compound 8, (R*)-6-(6-(cis-2,6-dimethylmorpholino)-1H-imidazo[4,5-c]pyridin-2-yl)-7-((2-methoxy-1-(pyrimidin-2-yl)ethyl)amino)thieno[3,2-b]pyridin-5(4H)-one] | – | 28.6 nM | – | – | 9.42 nM
COC[C@@H](Nc1c(-c2nc3ccc(N4C[C@@H](C)O[C@@H](C)C4)nc3[nH]2)c(=O)[nH]c2ccsc12)c1ncccn1 (single isomer, unassigned) [Compound 10, (S*)-6-(5-(cis-2,6-dimethylmorpholino)-3H-imidazo[4,5-b]pyridin-2-yl)-7-(((S*)-2-methoxy-1-(pyrimidin-2-yl)ethyl)amino)thieno[3,2-b]pyridin-5(4H)-one] | – | 290 nM | – | – | 119 nM
COC[C@H](Nc1c(-c2nc3ccc(N4C[C@@H](C)O[C@@H](C)C4)nc3[nH]2)c(=O)[nH]c2ccsc12)c1ncccn1 (single isomer, unassigned) [Compound 11, (R*)-6-(5-(cis-2,6-dimethylmorpholino)-3H-imidazo[4,5-b]pyridin-2-yl)-7-(((R*)-2-methoxy-1-(pyrimidin-2-yl)ethyl)amino)thieno[3,2-b]pyridin-5(4H)-one] | 91.1 nM | 8.73 nM | 3200 nM | 101 nM | 0.93 nM
CC(C)[C@H](Nc1c(-c2nc3cnc(N4CCN(C)CC4)cc3[nH]2)c(=O)[nH]c2ccsc12)c1ncccn1 (single isomer, unassigned) [Compound 12, (S*)-7-((2-methyl-1-(pyrimidin-2-yl)propyl)amino)-6-(6-(4-methylpiperazin-1-yl)-1H-imidazo[4,5-c]pyridin-2-yl)thieno[3,2-b]pyridin-5(4H)-one 0.6 formate] | 5.02 nM | 0.24 nM | 482 nM | 3.82 nM | 0.33 nM
C[C@@H](Nc1c(-c2nc3cnc(N4CCOCC4)cc3[nH]2)c(=O)[nH]c2ccsc12)c1ncccn1 [Compound 3, (R)-6-(6-Morpholino-1H-imidazo[4,5-c]pyridin-2-yl)-7-((1-(pyrimidin-2-yl)ethyl)amino)-thieno[3,2-b]pyridin-5(4H)-one] | – | 21.2 nM | – | – | 2.74 nM
C[C@H](Nc1c(-c2nc3cnc(N4CCN(C)CC4)cc3[nH]2)c(=O)[nH]c2ccsc12)c1ncccn1 [Compound 5, (S)-6-(6-(4-methylpiperazin-1-yl)-1H-imidazo[4,5-c]pyridin-2-yl)-7-((1-(pyrimidin-2-yl)-ethyl)amino)thieno[3,2-b]pyridin-5(4H)-one] | 4.64 nM | 0.14 nM | 571 nM | 2.1 nM | 0.13 nM
